According to patent US20240299290A1, “METHODS AND COMPOSITIONS FOR RAPID DELIVERY OF ANTI-SEIZURE THERAPEUTICS” (Neurelis, Inc., priority 2021, published 2024):
Where “and” joins values, the source holds several entries; their conditions need not be identical. Equal entries are not always repeated. Entries after “also recorded” stand apart in the source; their conditions may differ. Where two headings read alike, the source gives them in different places.

Tests used:
[1] = not given; remark: listed apart in the source
[2] = test system: seizure activity (beta frequency by EEG); assay: Change in beta frequency by EEG; conditions: intranasal 20 mg via intranasal composition
[3] = Safety results of the PK profile crossover study
seizure = assay: Rapid onset of therapeutic effect: seizure cessation measured by EEG after intranasal diazepam; conditions: for Time to Seizure Cessation: dosed during seizure, individual subjects
[4] = safety population, 163 subjects
[5] = 24 subjects, all three diazepam treatments

In the case of `CN1C(=O)CN=C(c2ccccc2)c2cc(Cl)ccc21` [diazepam, 7-chloro-1,3-dihydro-1-methyl-5-phenyl-2H-1,4-benzodiazepin-2-one], the respiratory depression (163 subjects) is reported as “no incidents”, the “Treatment-related AE: epistaxis, dysgeusia, somnolence (each)” value [4] is reported as 3 subjects and the “Treatment-related AE: headache” value [4] is reported as 4 subjects. For the same compound, the “Treatment-related AE: nasal discomfort” value [4] was 10 subjects, the “each of the 14 single-subject treatment-related AEs (nasal mucosal disorder to rash)” value [4] was 0.6% and the “subjects with at least one AE” value [4] was 134 subjects. For the same compound, the “subjects with at least one AE/TEAE” value [4] was 82.2%, the “subjects with treatment-related AEs” value [4] was 30 subjects and the “subjects with treatment-related AEs/TEAEs” value [4] was 18.4%. The “treatment-related AEs that were serious” value [4] was “None”, the overall safety conclusion (subjects with epilepsy, intranasal) was “safe and well tolerated; also recorded: good safety profile” and the “TEAE: seizure, nasopharyngitis, nasal discomfort (each)” value ([1]; 2 of 57 subjects each) was 3.5%. The “TEAE: dysgeusia” value ([1]; 3 of 57 subjects) was 5.3%, the “PK profile in seizure versus non-seizure state” value ([1]; 5-20 mg intranasal, subjects with epilepsy, any age group or dose) was “not notably altered” and the “subjects with treatment-related AEs” value ([1]; 8 of 57 subjects) was 14.0%. For the same compound, the “subjects with at least one AE” value ([1]; 17 out of 57 subjects) was 29.8%, the suicidal ideation post-dosing ([1]; 57 subjects) was “No subjects” and the “time to changes in beta frequency (EEG)” value [2] was at most 6 min. For the same compound, the “AE: epistaxis” value [3, 5] was 7 subjects, the “AE: somnolence” value [3, 5] was 6 subjects and the “AE: somnolence” value ([3]; each of the intranasal dosages (suspension, solution)) was 1 subject. The reports of epistaxis ([3]; intranasal) was 3 events, the tolerability ([3]; intranasal suspension and solution, 10 mg) was “well-tolerated” and the “Time to Seizure Cessation” value (seizure; 10 mg intranasal) was 1 min and <1 min (2×). For the same compound, the “Time to Seizure Cessation” value (seizure; 15 mg intranasal) was <1 min (6×) and 1 min (2×), the “Time to Seizure Cessation” value (seizure; 20 mg intranasal) was <1 min (12×) and 1 min and the “Cessation of the seizure, as measured by EEG” value (seizure; 10, 15 or 20 mg intranasal during active seizure, all but one of the subjects) was at most 1 min. For the same compound, the “subsequent seizure during the period of observation” value (seizure; intranasal, dosed after seizure had ended) was “no subsequent seizure was experienced by any of the subjects”.
